# US11293024B2, “Antisense antibacterial compounds and methods” (priority 2014, dated 2022)
# System: P. aeruginosa PAO1 biofilm
# Assay: Biofilm prevention in MBEC plate (crystal violet)
# Assay type: cell-based, Pseudomonas aeruginosa
# Conditions: 5 μM PPMO, 2 μg/mL PMBN, MHII, 20 hours; one-way ANOVA p<0.0001
# Description: P. aeruginosa PAO1 (5×10^5 cfu/mL) was grown in MHII media in an MBEC plate for 20 hours either alone or in the presence of 5 μM of the indicated PPMOs, PMBN alone, (RXR)4, or a scrambled PPMO. All conditions contained 2 μg/mL of PMBN unless indicated otherwise. Pegs were processed for crystal violet or visualized by microscopy at 20 hours. […] FIGS. 6B-6D: Spinning Disk confocal microscopy images of 20 hour biofilm treated with (FIG. 6B) No PPMO, (FIG. 6C) 5 μM Scr PPMO #41, (FIG. 6D) 5 μM RpsJ PPMO #14. PAO1 GFP is shown in green and biofilm is shown in red. The biofilm is stained with 200 μg/mL of Concanavalin A, Alexafluor 647 conjugate.
# Pseudomonas aeruginosa Biofilm Prevention in MBEC Plate Protocol
# • 1. 10 mL of MH is inoculated with a single colony and incubated at 37° C. and ˜250 rpm for about 5 hours. • 2. The sample is centrifuged for 10 minutes at ˜4000 rpm at 4° C., the supernatant is decanted and the pellet resuspended in 10 mL of 150 mM NaCl or PBS. This step is repeated to wash the pellet 3 times. • 3. The sample is resuspended in 10 mL 150 mM NaCl or PBS. • 4. The OD600 of the sample is taken and cfu/mL is calculated. (OD600 usually between 0.65-0.80). • 5. A Bacterial Working Solution (BWS) is made by inoculating 10 mL of MH to 5×10^5 cfu/mL final concentration. • 6. 2 μL/mL of 1 mg/mL stock PMBN is added to the BWS and vortexed 3 times. • 7. 1 mL of BWS is pipetted into each separate Eppendorf tube for each condition that is tested. • 8. An appropriate amount of PPMO is added to each Eppendorf tube and vortexed 3 times. • 9. Outside wells are filled with fresh MH, NaCl, or PBS to keep the outer pegs from drying out. • 10. One column of the MBEC plate is filled with 150 μL per well from each Eppendorf tube (one condition per column). • 11. Pegs are placed into the MBEC plate and the edges covered with a breathable membrane. • 12. The MBEC plate is incubated for 18-20 hours at 37° C. and 110 rpm. Day 2:
# 1. […] The final OD570 of the 10× dilution of solution should be approximately 0.500 absorbance. […]
# 2. OD reading: The OD570 for the 96-well plate from step 1e is determined. […]
substance,measurement,value
"PPMO #14: RpsJ PMO GCATTTGACCT, 5′ TEG, 3′ (RXR)4XB CPP",prevention of biofilm (crystal violet),statistically significant prevention of biofilm
